How the values were obtained:
[1] = test system: SW48; assay: Cytotoxicity against human SW48 cells assessed as reduction in cell viability; format: functional, cell-based
[2] = test system: MDA-MB-468; assay: Cytotoxicity against human MDA-MB-468 cells assessed as cell viability at 100 uM relative to control; format: functional; details: read-out: Activity
[3] = Cytotoxicity against human HK1 cells assessed as reduction in cell viability; format: functional, cell-based; details: HK-1
[4] = test system: Caco-2; assay: Cytotoxicity against human Caco2 cells assessed as reduction in cell viability; format: functional, cell-based
[5] = test system: HT-29; assay: Cytotoxicity against human HT-29 cells assessed as reduction in cell viability; format: functional, cell-based
[6] = test system: T47D; assay: Cytotoxicity against human T47D cells assessed as reduction in cell viability; format: functional, cell-based
[7] = test system: SW1990; assay: Cytotoxicity against human SW1990 cells assessed as cell viability at 100 uM relative to control; format: functional; details: read-out: Activity
[8] = test system: CNE; assay: Cytotoxicity against human CNE1 cells assessed as reduction in cell viability; format: functional, cell-based
[9] = test system: SUNE1; assay: Cytotoxicity against human SUNE1 cells assessed as cell viability at 100 uM relative to control; format: functional; details: read-out: Activity
[10] = test system: MCF-10A; assay: Cytotoxicity against human MCF10A cells assessed as reduction in cell viability; format: cell-based
[11] = test system: MDA-MB-231; assay: Cytotoxicity against human MDA-MB-231 cells assessed as reduction in cell viability; format: functional, cell-based
[12] = test system: MRC5; assay: Cytotoxicity against human MRC5 cells assessed as reduction in cell viability; format: cell-based
[13] = test system: MDA-MB-468; assay: Cytotoxicity against human MDA-MB-468 cells assessed as reduction in cell viability; format: functional, cell-based
[14] = test system: MCF7; assay: Cytotoxicity against human MCF7 cells assessed as cell viability at 100 uM relative to control; format: functional; details: read-out: Activity
[15] = test system: NCI-H1299; assay: Cytotoxicity against human H1299 cells assessed as cell viability at 100 uM relative to control; format: functional; details: read-out: Activity
[16] = test system: SUNE1; assay: Cytotoxicity against human SUNE1 cells assessed as reduction in cell viability; format: functional, cell-based
[17] = test system: SK-BR-3; assay: Cytotoxicity against human SKBR3 cells assessed as reduction in cell viability; format: functional, cell-based
[18] = test system: HCT-116; assay: Cytotoxicity against human HCT116 cells assessed as reduction in cell viability; format: functional, cell-based
[19] = Cytotoxicity against human MRC5 cells assessed as cell viability at 100 uM relative to control; format: cell-based; details: read-out: Activity
[20] = test system: T47D; assay: Cytotoxicity against human T47D cells assessed as cell viability at 100 uM relative to control; format: functional; details: read-out: Activity
[21] = test system: NCI-H1299; assay: Cytotoxicity against human H1299 cells assessed as reduction in cell viability; format: functional, cell-based
[22] = test system: SH-SY5Y; assay: Cytotoxicity against human SH-SY5Y cells assessed as cell viability at 100 uM relative to control; format: functional; details: read-out: Activity
[23] = test system: CNE; assay: Cytotoxicity against human CNE1 cells assessed as cell viability at 100 uM relative to control; format: functional; details: read-out: Activity
[24] = test system: HCT-116; assay: Cytotoxicity against human HCT116 cells assessed as cell viability at 100 uM relative to control; format: functional; details: read-out: Activity
[25] = test system: ASPC1; assay: Cytotoxicity against human AsPC1 cells assessed as cell viability at 100 uM relative to control; format: functional; details: read-out: Activity
[26] = test system: MDA-MB-231; assay: Cytotoxicity against human MDA-MB-231 cells assessed as cell viability at 100 uM relative to control; format: functional; details: read-out: Activity
[27] = test system: A549; assay: Cytotoxicity against human A549 cells assessed as reduction in cell viability; format: functional, cell-based
[28] = test system: A549; assay: Cytotoxicity against human A549 cells assessed as cell viability at 100 uM relative to control; format: functional; details: read-out: Activity
[29] = test system: SW48; assay: Cytotoxicity against human SW48 cells assessed as cell viability at 100 uM relative to control; format: functional; details: read-out: Activity
[30] = test system: SW1990; assay: Cytotoxicity against human SW1990 cells assessed as reduction in cell viability; format: functional, cell-based
[31] = test system: ASPC1; assay: Cytotoxicity against human AsPC1 cells assessed as reduction in cell viability; format: functional, cell-based
[32] = test system: BXPC-3; assay: Cytotoxicity against human BxPC3 cells assessed as reduction in cell viability; format: functional, cell-based
[33] = test system: Caco-2; assay: Cytotoxicity against human Caco2 cells assessed as cell viability at 100 uM relative to control; format: functional; details: read-out: Activity
[34] = test system: MCF7; assay: Cytotoxicity against human MCF7 cells assessed as reduction in cell viability; format: functional, cell-based
[35] = test system: HT-29; assay: Cytotoxicity against human HT-29 cells assessed as cell viability at 100 uM relative to control; format: functional; details: read-out: Activity
[36] = test system: SH-SY5Y; assay: Cytotoxicity against human SH-SY5Y cells assessed as reduction in cell viability; format: functional, cell-based
[37] = test system: BXPC-3; assay: Cytotoxicity against human BxPC3 cells assessed as cell viability at 100 uM relative to control; format: functional; details: read-out: Activity
[38] = test system: SK-BR-3; assay: Cytotoxicity against human SKBR3 cells assessed as cell viability at 100 uM relative to control; format: functional; details: read-out: Activity
[39] = Cytotoxicity against human MCF10A cells assessed as cell viability at 100 uM relative to control; format: cell-based, MCF-10A; details: read-out: Activity
[40] = Cytotoxicity against human HK1 cells assessed as cell viability at 100 uM relative to control; format: functional; details: HK-1, read-out: Activity

Compound | IC50 [1] [µM] | viability at 100 µM [2] [%] | IC50 [3] [µM] | IC50 [4] [µM] | IC50 [5] [µM] | IC50 [6] [µM] | viability at 100 µM [7] [%] | IC50 [8] [µM] | viability at 100 µM [9] [%] | IC50 [10] [µM] | IC50 [11] [µM] | IC50 [12] [µM] | IC50 [13] [µM] | viability at 100 µM [14] [%] | viability at 100 µM [15] [%] | IC50 [16] [µM] | IC50 [17] [µM] | IC50 [18] [µM] | viability at 100 µM [19] [%] | viability at 100 µM [20] [%] | also measured
O=[N+]([O-])c1ccc(NC(CCl)CCl)cc1 | > 100 | 45.1 | > 100 | > 100 | > 100 | > 100 | 55.1 | > 100 | 110 | > 100 | > 100 | 58.3 | > 100 | 38.8 | 67.4 | > 100 | > 100 | > 100 | 44.9 | 65.2 | IC50 [21]: > 100 µM; viability at 100 µM [22]: 65.8%; viability at 100 µM [23]: 88.1%; viability at 100 µM [24]: 79.4%; viability at 100 µM [25]: 67.7%; viability at 100 µM [26]: 72.4%; IC50 [27]: > 100 µM; viability at 100 µM [28]: 73.5%; viability at 100 µM [29]: 58.8%; IC50 [30]: > 100 µM; IC50 [31]: > 100 µM; IC50 [32]: > 100 µM; viability at 100 µM [33]: 91.6%; IC50 [34]: 70.2 µM; viability at 100 µM [35]: 60.9%; IC50 [36]: > 100 µM; viability at 100 µM [37]: 82.9%; viability at 100 µM [38]: 73.1%; viability at 100 µM [39]: 82.7%; viability at 100 µM [40]: 76.9%
O=[N+]([O-])c1ccccc1NC(CO)CO | > 100 | 104 | > 100 | > 100 | > 100 | > 100 | 91.9 | > 100 | 99.3 | > 100 | > 100 | > 100 | > 100 | 66.6 | 96.7 | > 100 | > 100 | > 100 | 101 | 76.2 | IC50 [21]: > 100 µM; viability at 100 µM [22]: 89.7%; viability at 100 µM [23]: 102%; viability at 100 µM [24]: 76.9%; viability at 100 µM [25]: 101%; viability at 100 µM [26]: 91.8%; IC50 [27]: > 100 µM; viability at 100 µM [28]: 74.9%; viability at 100 µM [29]: 102%; IC50 [30]: > 100 µM; IC50 [31]: > 100 µM; IC50 [32]: > 100 µM; viability at 100 µM [33]: 95.1%; IC50 [34]: > 100 µM; viability at 100 µM [35]: 86.1%; IC50 [36]: > 100 µM; viability at 100 µM [37]: 102%; viability at 100 µM [38]: 101%; viability at 100 µM [39]: 100%; viability at 100 µM [40]: 90.1%
O=[N+]([O-])c1ccc(NC(CCl)CCl)c([N+](=O)[O-])c1 | > 100 | 61.3 | > 100 | > 100 | > 100 | 85.3 | 69.8 | > 100 | 68.6 | > 100 | > 100 | 54.1 | > 100 | 25.1 | 96.3 | > 100 | > 100 | > 100 | 24.3 | 58.7 | IC50 [21]: > 100 µM; viability at 100 µM [22]: 63.6%; viability at 100 µM [23]: 70.5%; viability at 100 µM [24]: 73.1%; viability at 100 µM [25]: 106%; viability at 100 µM [26]: 83.4%; IC50 [27]: > 100 µM; viability at 100 µM [28]: 59.4%; viability at 100 µM [29]: 55.2%; IC50 [30]: > 100 µM; IC50 [31]: > 100 µM; IC50 [32]: > 100 µM; viability at 100 µM [33]: 105%; IC50 [34]: 44.3 µM; viability at 100 µM [35]: 89.1%; IC50 [36]: > 100 µM; viability at 100 µM [37]: 103%; viability at 100 µM [38]: 71.6%; viability at 100 µM [39]: 78.8%; viability at 100 µM [40]: 88.9%

From ChEMBL document CHEMBL4610038, “The synthesis of trifluoromethylated N-nitroaryl-2-amino-1,3-dichloropropane derivatives and their evaluation as potential anti-cancer agents” (Bioorg Med Chem Lett, 2020)
